In PubChem BioAssay AID2060912 (Molecular Pharmacology Branch, DTP, NCI, 2025):

Test system: HUVEC/MSC spheroids viability
Experiment: Human HUVEC/MSC cell line growth inhibition [KRAS2];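 as to viability, T/C: percent of DMSO vehicle control luminescence so 100% = untreated viability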
Details: for IC50: curve of first compound; for viability, T/C: stronger effect = lower value
Outline: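 Spheroids of pooled-donor HUVEC and hMSC (passage ≤5) without tumour cells were treated with KRAS-pathway inhibitors alone and combined with targeted agents. Top concentration was at or near clinical Cmax, or 10 microM when Cmax was unknown, descending in half-log steps.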

[1] = second compound 0.0316 µM, first compound 0.000316 µM
[2] = second compound 0.0316 µM, first compound 0.001 µM
[3] = second compound 0.0316 µM, first compound 0.00316 µM
[4] = second compound 0.0316 µM, first compound 0.01 µM
[5] = second compound 0.0316 µM, first compound 0.0316 µM
[6] = second compound 0.0316 µM, first compound 0.1 µM
[7] = second compound 0.1 µM, first compound 0.000316 µM
[8] = second compound 0.1 µM, first compound 0.001 µM
[9] = second compound 0.1 µM, first compound 0.00316 µM
[10] = second compound 0.1 µM, first compound 0.01 µM
[11] = second compound 0.1 µM, first compound 0.0316 µM
[12] = second compound 0.1 µM, first compound 0.1 µM
[13] = second compound 0.316 µM, first compound 0.000316 µM
[14] = second compound 0.316 µM, first compound 0.001 µM
[15] = second compound 0.316 µM, first compound 0.00316 µM
[16] = second compound 0.316 µM, first compound 0.01 µM
[17] = second compound 0.316 µM, first compound 0.0316 µM
[18] = second compound 0.316 µM, first compound 0.1 µM
[19] = second compound 1 µM, first compound 0.000316 µM
[20] = second compound 1 µM, first compound 0.001 µM
[21] = second compound 1 µM, first compound 0.00316 µM
[22] = second compound 1 µM, first compound 0.01 µM
[23] = second compound 1 µM, first compound 0.0316 µM
[24] = second compound 1 µM, first compound 0.1 µM
[25] = second compound 3.16 µM, first compound 0.000316 µM
[26] = second compound 3.16 µM, first compound 0.001 µM
[27] = second compound 3.16 µM, first compound 0.00316 µM
[28] = second compound 3.16 µM, first compound 0.01 µM
[29] = second compound 3.16 µM, first compound 0.0316 µM
[30] = second compound 3.16 µM, first compound 0.1 µM
[31] = second compound 10 µM, first compound 0.000316 µM
[32] = second compound 10 µM, first compound 0.001 µM
[33] = second compound 10 µM, first compound 0.00316 µM
[34] = second compound 10 µM, first compound 0.01 µM
[35] = second compound 10 µM, first compound 0.0316 µM
[36] = second compound 10 µM, first compound 0.1 µM

## COc1cc(Nc2ncc3c(n2)-c2ccc(Cl)cc2C(c2c(F)cccc2OC)=NC3)ccc1C(=O)O + C=CC(=O)N1CCN(c2nc(OCC3CCCN3C)nc3c2CCN(c2cccc4cccc(C)c24)C3)CC1CC#N
Second compound 0.00949 µM
  IC50: > 10000 nM
Second compound 0.03 µM
  IC50: > 10000 nM
Second compound 0.0949 µM
  IC50: > 10000 nM
Second compound 0.3 µM
  IC50: > 10000 nM
Second compound 0.949 µM
  IC50: 7030 nM
Second compound 3 µM
  IC50: 5920 nM
Second compound 0.00949 µM, first compound 0.0316 µM
  viability, T/C: 93.2%
Second compound 0.00949 µM, first compound 0.1 µM
  viability, T/C: 88%
Second compound 0.00949 µM, first compound 0.316 µM
  viability, T/C: 87.1%
Second compound 0.00949 µM, first compound 1 µM
  viability, T/C: 83.8%
Second compound 0.00949 µM, first compound 3.16 µM
  viability, T/C: 105%
Second compound 0.00949 µM, first compound 10 µM
  viability, T/C: 66.6%
Second compound 0.03 µM, first compound 0.0316 µM
  viability, T/C: 77.3%
Second compound 0.03 µM, first compound 0.1 µM
  viability, T/C: 86.9%
Second compound 0.03 µM, first compound 0.316 µM
  viability, T/C: 86%
Second compound 0.03 µM, first compound 1 µM
  viability, T/C: 82.9%
Second compound 0.03 µM, first compound 3.16 µM
  viability, T/C: 102%
Second compound 0.03 µM, first compound 10 µM
  viability, T/C: 68.2%
Second compound 0.0949 µM, first compound 0.0316 µM
  viability, T/C: 80.4%
Second compound 0.0949 µM, first compound 0.1 µM
  viability, T/C: 108%
Second compound 0.0949 µM, first compound 0.316 µM
  viability, T/C: 98.5%
Second compound 0.0949 µM, first compound 1 µM
  viability, T/C: 74.7%
Second compound 0.0949 µM, first compound 3.16 µM
  viability, T/C: 81.6%
Second compound 0.0949 µM, first compound 10 µM
  viability, T/C: 61.2%
Second compound 0.3 µM, first compound 0.0316 µM
  viability, T/C: 79.8%
Second compound 0.3 µM, first compound 0.1 µM
  viability, T/C: 79.5%
Second compound 0.3 µM, first compound 0.316 µM
  viability, T/C: 76.9%
Second compound 0.3 µM, first compound 1 µM
  viability, T/C: 91.1%
Second compound 0.3 µM, first compound 3.16 µM
  viability, T/C: 87.5%
Second compound 0.3 µM, first compound 10 µM
  viability, T/C: 69%
Second compound 0.949 µM, first compound 0.0316 µM
  viability, T/C: 59.9%
Second compound 0.949 µM, first compound 0.1 µM
  viability, T/C: 78.9%
Second compound 0.949 µM, first compound 0.316 µM
  viability, T/C: 92.3%
Second compound 0.949 µM, first compound 1 µM
  viability, T/C: 75.8%
Second compound 0.949 µM, first compound 3.16 µM
  viability, T/C: 73.2%
Second compound 0.949 µM, first compound 10 µM
  viability, T/C: 39.7%
Second compound 3 µM, first compound 0.0316 µM
  viability, T/C: 93.4%
Second compound 3 µM, first compound 0.1 µM
  viability, T/C: 88.5%
Second compound 3 µM, first compound 0.316 µM
  viability, T/C: 96.4%
Second compound 3 µM, first compound 1 µM
  viability, T/C: 102%
Second compound 3 µM, first compound 3.16 µM
  viability, T/C: 73.2%
Second compound 3 µM, first compound 10 µM
  viability, T/C: 30.7%

## CC(C)n1nc(-c2ccc3oc(N)nc3c2)c2c(N)ncnc21 + CNCc1ccccc1-c1csc(C(C)Nc2nc(C)nc3cc(OC)c(OC)cc23)c1
Second compound 0.0316 µM
  IC50: 3.15 nM
Second compound 0.1 µM
  IC50: 3.11 nM
Second compound 0.316 µM
  IC50: 7.12 nM
Second compound 1 µM
  IC50: 7.98 nM
Second compound 3.16 µM
  IC50: 7.84 nM
Second compound 10 µM
  IC50: < 0.316 nM
[1]
  viability, T/C: 85.2%
[2]
  viability, T/C: 69%
[3]
  viability, T/C: 50.2%
[4]
  viability, T/C: 44%
[5]
  viability, T/C: 45.5%
[6]
  viability, T/C: 44.4%
[7]
  viability, T/C: 84.8%
[8]
  viability, T/C: 64.6%
[9]
  viability, T/C: 49.9%
[10]
  viability, T/C: 45.6%
[11]
  viability, T/C: 46.4%
[12]
  viability, T/C: 45%
[13]
  viability, T/C: 81.9%
[14]
  viability, T/C: 66.5%
[15]
  viability, T/C: 50.5%
[16]
  viability, T/C: 51.9%
[17]
  viability, T/C: 45.4%
[18]
  viability, T/C: 37.6%
[19]
  viability, T/C: 70.1%
[20]
  viability, T/C: 52.5%
[21]
  viability, T/C: 56.2%
[22]
  viability, T/C: 50.6%
[23]
  viability, T/C: 47%
[24]
  viability, T/C: 37.5%
[25]
  viability, T/C: 89.7%
[26]
  viability, T/C: 79%
[27]
  viability, T/C: 67.5%
[28]
  viability, T/C: 40.7%
[29]
  viability, T/C: 50.2%
[30]
  viability, T/C: 36.5%
[31]
  viability, T/C: 0.36%
[32]
  viability, T/C: 0.39%
[33]
  viability, T/C: 0.37%
[34]
  viability, T/C: 0.37%
[35]
  viability, T/C: 0.42%
[36]
  viability, T/C: 0.4%

## CN(C)C/C=C/C(=O)Nc1cc2c(Nc3ccc(F)c(Cl)c3)ncnc2cc1O[C@H]1CCOC1 + CNCc1ccccc1-c1csc(C(C)Nc2nc(C)nc3cc(OC)c(OC)cc23)c1
Second compound 0.0316 µM
  IC50: > 100 nM
Second compound 0.1 µM
  IC50: > 100 nM
Second compound 0.316 µM
  IC50: > 100 nM
Second compound 1 µM
  IC50: > 100 nM
Second compound 3.16 µM
  IC50: > 100 nM
Second compound 10 µM
  IC50: < 0.316 nM
[1]
  viability, T/C: 100%
[2]
  viability, T/C: 89.5%
[3]
  viability, T/C: 90.5%
[4]
  viability, T/C: 91.2%
[5]
  viability, T/C: 74%
[6]
  viability, T/C: 86%
[7]
  viability, T/C: 89.7%
[8]
  viability, T/C: 105%
[9]
  viability, T/C: 77.4%
[10]
  viability, T/C: 76.7%
[11]
  viability, T/C: 89.5%
[12]
  viability, T/C: 74.8%
[13]
  viability, T/C: 85.2%
[14]
  viability, T/C: 93.2%
[15]
  viability, T/C: 72.5%
[16]
  viability, T/C: 78.1%
[17]
  viability, T/C: 96.6%
[18]
  viability, T/C: 68.8%
[19]
  viability, T/C: 78.3%
[20]
  viability, T/C: 73.7%
[21]
  viability, T/C: 86.5%
[22]
  viability, T/C: 73.5%
[23]
  viability, T/C: 72.7%
[24]
  viability, T/C: 59.8%
[25]
  viability, T/C: 89.2%
[26]
  viability, T/C: 94.4%
[27]
  viability, T/C: 80.4%
[28]
  viability, T/C: 89.5%
[29]
  viability, T/C: 65.2%
[30]
  viability, T/C: 84.4%
[31]
  viability, T/C: 0.33%
[32]
  viability, T/C: 0.35%
[33]
  viability, T/C: 0.37%
[34]
  viability, T/C: 0.33%
[35]
  viability, T/C: 0.37%
[36]
  viability, T/C: 0.65%
